From patent US11786534B2 (TAIHO PHARMACEUTICAL CO., LTD., priority 2019, dated 2023)
Read-outs that look alike come from different tables or passages of the source.

How the values were obtained:
[1] = target: Ba/F3-EGFR (d746-750/T790M/C797S) (Homo sapiens, UniProt P00533, DEL746-750/T790M/C797S, cells depend on it); test: Growth inhibition of cell line expressing EGFR (d746-750/T790M/C797S); type: cell-based, mouse; conditions: read-out: BaF3_EGFR (d746-750/T790M/C797S) IC50 value
Source text: Test for inhibitory activity against the growth of cell lines expressing wild-type and mutated EGFRs (in vitro)
(1) Mouse cell line Ba/F3-EGFR (d746-750/T790M/C797S) transfected with and stably expressing EGFR (d746-750/T790M/C797S), mouse cell Ba/F3-EGFR (L858R/T790M/C797S) transfected with and stably expressing EGFR (L858R/T790M/C797S), and mouse cell line Ba/F3-EGFR (WT) transfected with and stably expressing wild-type EGFR were each suspended in RPMI-1640 cell culture medium (RPMI-1640, 10% FBS, 100 unit/ml penicillin, 0.1 mg/ml streptomycin). In the case of the mouse cell line Ba/F3-EGFR (WT), RPMI-1640 cell culture medium containing EGF at a final concentration of 50 ng/ml was used to suspend this cell line. It should be noted that the mouse cell line Ba/F3-EGFR (d746-750/T790M/C797S) transfected with and stably expressing EGFR (d746-750/T790M/C797S), the mouse cell line Ba/F3-EGFR (L858R/T790M/C797S) transfected with and stably expressing EGFR (L858R/T790M/C797S) and the mouse cell line Ba/F3-EGFR (WT) transfected with and stably expressing wild-type EGFR were prepared by using nucleotide sequences encoding the proteins of SEQ ID NOs: 1 and 2 in accordance with Test Example 1 in WO2018/079310, These cell suspensions were seeded in wells of 96-well flat -bottomed plates. The compounds of the present invention were dissolved in DMSO, and serial dilutions of these test compounds were prepared with DMSO (1000-fold of the final concentration). Each test compound solution in DMSO or DMSO alone was diluted with RPMI-1640 cell culture medium for each cell line, and this dilution was added to wells of the cell culture plate such that the final concentration of DMSO was 0.1%, followed by culture at 37° C. for 3 days in a 5% carbon dioxide gas-containing incubator. Before and after addition of each test compound solution in DMSO, the number of cells was counted using the CellTiter-Glo® system (Promega) on the basis of the protocol recommended by Promega.
In each cell line, the rate of cell growth inhibition was calculated according to the equation shown below in wells to which each test compound was added at different concentrations. Moreover, the inhibition rate at each concentration was plotted for each test compound, and the concentration of each test compound required to give 50% cell survival rate, i.e., IC50 (nM) was determined by curve fitting software XLfit (IDBS).
Cell survival rate (%)=T/C×100
T: emission intensity in a well cultured for 3 days after addition of a test compound solution
C: emission intensity in a well cultured for 3 days after addition of DMSO
In accordance with the same procedures as shown in Test Example 2, the compounds of the present invention were tested for their inhibitory activity against the growth of the cell hoes expressing wild-type and mutated EGFRs.

human EGFR (L858R/C797S) = target: T1, human EGFR (L858R/C797S) (Homo sapiens, UniProt P00533, C797S/L858R); test: Inhibitory activity against EGFR (L858R/C797S) kinase; type: biochemical; conditions: Test Example 1, Table 5; ATP 4 μM, 90 minutes
T1 construct: purchased SignalChem
T1 sequence (P00533 25-1210 C797S/L858R): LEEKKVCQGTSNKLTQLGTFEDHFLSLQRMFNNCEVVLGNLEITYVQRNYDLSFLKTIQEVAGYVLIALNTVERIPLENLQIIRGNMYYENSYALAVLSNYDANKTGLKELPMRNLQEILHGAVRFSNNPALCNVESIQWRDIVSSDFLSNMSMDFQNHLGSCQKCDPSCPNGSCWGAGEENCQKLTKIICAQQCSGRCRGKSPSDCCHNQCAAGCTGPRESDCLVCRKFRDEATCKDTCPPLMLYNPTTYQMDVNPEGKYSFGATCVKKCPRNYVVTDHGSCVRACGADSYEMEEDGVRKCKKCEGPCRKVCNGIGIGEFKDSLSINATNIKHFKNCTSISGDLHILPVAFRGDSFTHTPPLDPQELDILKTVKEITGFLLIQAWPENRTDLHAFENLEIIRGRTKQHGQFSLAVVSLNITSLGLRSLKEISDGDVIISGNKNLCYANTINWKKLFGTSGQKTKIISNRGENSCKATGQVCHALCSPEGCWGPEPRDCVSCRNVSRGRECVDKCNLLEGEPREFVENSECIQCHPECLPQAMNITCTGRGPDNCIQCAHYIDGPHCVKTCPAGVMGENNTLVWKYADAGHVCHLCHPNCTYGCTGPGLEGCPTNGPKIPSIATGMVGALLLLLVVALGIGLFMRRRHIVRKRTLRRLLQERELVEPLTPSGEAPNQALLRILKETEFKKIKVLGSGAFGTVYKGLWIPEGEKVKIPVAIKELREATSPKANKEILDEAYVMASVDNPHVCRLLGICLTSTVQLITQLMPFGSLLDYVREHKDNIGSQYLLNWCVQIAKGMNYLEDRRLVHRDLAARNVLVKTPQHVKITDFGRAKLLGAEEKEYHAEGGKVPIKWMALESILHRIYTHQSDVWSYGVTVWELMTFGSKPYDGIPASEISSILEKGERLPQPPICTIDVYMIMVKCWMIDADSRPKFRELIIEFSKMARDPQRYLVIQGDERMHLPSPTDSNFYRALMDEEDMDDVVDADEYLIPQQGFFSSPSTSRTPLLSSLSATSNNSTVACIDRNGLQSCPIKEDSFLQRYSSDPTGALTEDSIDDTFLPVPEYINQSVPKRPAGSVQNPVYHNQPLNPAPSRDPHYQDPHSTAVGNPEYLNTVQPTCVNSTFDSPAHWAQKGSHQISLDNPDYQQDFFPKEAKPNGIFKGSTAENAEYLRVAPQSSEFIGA
How it was run: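 Purified recombinant human EGFR (C797S/L858R) kinase, final ATP 4 μM, 90-minute kinase reaction, otherwise per the EGFR (d746-750/C797S) protocol. IC50 (nM) determined from inhibition data.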

[2] = Test Example 4, Table 13, same procedures as Test Example 2
[3] = Test Example 2, Table 7, culture 3 days, CellTiter-Glo

Sequence of Ba/F3-EGFR (d746-750/T790M/C797S) (P00533 with tags, fused parts or gaps DEL746-750/T790M/C797S): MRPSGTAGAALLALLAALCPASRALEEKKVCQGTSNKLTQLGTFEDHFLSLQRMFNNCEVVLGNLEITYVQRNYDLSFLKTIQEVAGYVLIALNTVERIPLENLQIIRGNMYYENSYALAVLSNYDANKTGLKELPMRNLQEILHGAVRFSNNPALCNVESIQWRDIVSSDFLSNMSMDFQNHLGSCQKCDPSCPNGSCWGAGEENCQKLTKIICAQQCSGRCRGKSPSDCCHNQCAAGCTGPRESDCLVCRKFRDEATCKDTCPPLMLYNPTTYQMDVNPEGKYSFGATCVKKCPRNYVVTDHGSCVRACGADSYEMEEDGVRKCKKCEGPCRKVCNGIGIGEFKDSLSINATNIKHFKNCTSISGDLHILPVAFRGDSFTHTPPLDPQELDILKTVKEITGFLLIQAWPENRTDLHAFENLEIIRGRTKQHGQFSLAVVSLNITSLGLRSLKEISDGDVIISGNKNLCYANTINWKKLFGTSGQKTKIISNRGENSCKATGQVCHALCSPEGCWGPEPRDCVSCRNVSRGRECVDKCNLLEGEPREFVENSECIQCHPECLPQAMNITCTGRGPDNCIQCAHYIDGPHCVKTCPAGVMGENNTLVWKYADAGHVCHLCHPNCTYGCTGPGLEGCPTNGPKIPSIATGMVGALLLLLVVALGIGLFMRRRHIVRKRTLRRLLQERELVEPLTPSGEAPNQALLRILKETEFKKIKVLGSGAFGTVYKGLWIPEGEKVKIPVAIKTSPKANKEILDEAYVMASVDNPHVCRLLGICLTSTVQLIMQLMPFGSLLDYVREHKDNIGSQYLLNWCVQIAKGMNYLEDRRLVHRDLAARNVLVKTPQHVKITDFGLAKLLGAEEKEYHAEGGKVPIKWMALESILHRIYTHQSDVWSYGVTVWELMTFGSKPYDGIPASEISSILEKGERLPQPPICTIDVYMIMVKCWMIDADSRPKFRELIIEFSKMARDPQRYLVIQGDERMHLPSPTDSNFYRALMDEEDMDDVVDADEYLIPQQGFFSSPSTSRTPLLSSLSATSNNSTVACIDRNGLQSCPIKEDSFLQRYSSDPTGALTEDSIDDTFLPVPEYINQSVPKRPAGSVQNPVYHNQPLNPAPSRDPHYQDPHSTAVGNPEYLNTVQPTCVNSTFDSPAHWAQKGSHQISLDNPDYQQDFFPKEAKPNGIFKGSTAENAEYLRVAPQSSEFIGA

| GI50 [1, 2] | GI50 [1, 3] | IC50 (human EGFR (L858R/C797S)) | Structure (SMILES) |
| --- | --- | --- | --- |
| 73 nM | – | – | C#Cc1c(-c2cnc3ccccc3c2)c2c(N)ncnc2n1C12CCC(NC(=O)[C@@H]3CN(C)CCO3)(CC1)C2 [Example 63, (S)-N-(4-(4-Amino-6-ethynyl-5-(quinolin-3-yl)-7H-pyrrolo[2,3-d]pyrimidin-7-yl) -bicyclo[2.2.1]heptan-1-yl)-4-methylmorpholine-2-carboxamide] |
| – | 21 nM | 0.69 nM | C#Cc1c(-c2cnc3ccccc3c2)c2c(N)ncnc2n1C12CCC(NC(=O)c3cnc(C)cn3)(CC1)C2 [Example 37, N-(4-(4-Amino-6-ethynyl-5-(quinolin-3-yl)-7H-pyrrolo[2,3-d]pyrimidin-7-yl)-bicyclo-[2.2.1]heptan-1-yl)-5-methylpyrazine-2-carboxamide] |
| – | 19 nM | 0.43 nM | C#Cc1c(-c2cnc3ccccc3c2)c2c(N)ncnc2n1C12CCC(NC(=O)c3ncco3)(CC1)C2 [Example 46] |
| 31 nM | – | 1.2 nM | C#Cc1c(-c2cnc3ccccc3c2)c2c(N)ncnc2n1C12CCC(NC(=O)c3ccnn3C3CC3)(CC1)C2 [Example 20, N-(4-(4-Amino-6-ethynyl-5-(quinolin-3-yl)-7H-pyrrolo[2,3-d]pyrimidin-7-yl)bicyclo-[2.2.1]heptan-1-yl)-1-cyclopropyl-1H-pyrazole-5-carboxamide] |
| 110 nM | – | 2.4 nM | C#Cc1c(-c2cnc3ccccc3c2)c2c(N)ncnc2n1C12CCC(NC(=O)C(F)F)(CC1)C2 [Example 27, N-(4-(4-Amino-6-ethynyl-5-(quinolin-3-yl)-7H-pyrrolo[2,3-d]pyrimidin-7-yl)bicyclo-[2.2.1]heptan-1-yl)-2,2-difluoroacetamide] |
| – | 56 nM | 0.37 nM | C#Cc1c(-c2cnc3ccccc3c2)c2c(N)ncnc2n1C12CCC(NC(=O)c3ccnnc3)(CC1)C2 [Example 3, N-(4-(4-Amino-6-ethynyl-5-(quinolin-3-yl)-7H-pyrrolo[2,3-d]pyrimidin-7-yl)bicyclo-[2.2.1]heptan-1-yl)pyridazine-4-carboxamide] |
| – | 20 nM | 0.46 nM | C#Cc1c(-c2cnc3ccccc3c2)c2c(N)ncnc2n1C12CCC(NC(=O)c3cncnc3)(CC1)C2 [Example 2, N-(4-(4-Amino-6-ethynyl-5-(quinolin-3-yl)-7H-pyrrolo[2,3-d]pyrimidin-7-yl)bicyclo-[2.2.1]heptan-1-yl)pyrimidine-5-carboxamide] |
| 102 nM | – | 1.9 nM | C#Cc1c(-c2cnc3ccccc3c2)c2c(N)ncnc2n1C12CCC(NC(=O)c3ccco3)(CC1)C2 [Example 41] |
| – | 57 nM | 0.49 nM | C#Cc1c(-c2cnc3ccccc3c2)c2c(N)ncnc2n1C12CCC(NC(=O)c3ccncc3)(CC1)C2 [Example 43] |
| – | 34 nM | 0.59 nM | C#Cc1c(-c2cnc3ccccc3c2)c2c(N)ncnc2n1C12CCC(NC(=O)c3ccnn3C)(CC1)C2 [Example 24, N-(4-(4-Amino-6-ethynyl-5-(quinolin-3-yl)-7H-pyrrolo[2,3-d]pyrimidin-7-yl)bicyclo-[2.2.1]heptan-1-yl)-1-methyl-1H-pyrazole-5-carboxamide] |
| 44 nM | – | 0.84 nM | C#Cc1c(-c2cnc3ccccc3c2)c2c(N)ncnc2n1C12CCC(NC(=O)c3cncc(F)c3)(CC1)C2 [Example 35, N-(4-(4-Amino-6-ethynyl-5-(quinolin-3-yl)-7H-pyrrolo[2,3-d]pyrimidin-7-yl)-bicyclo-[2.2.1]heptan-1-yl)-5-fluoronicotinamide] |
| – | 3660 nM | 187 nM | C=CC(=O)N1CC[C@@H](n2cc(-c3cnc4ccccc4c3)c3c(N)ncnc32)C1 [Comparative Example A, (R)-1-(3(4-Amino-5-(quinolin-3-yl)-7H-pyrrolo[2,3-d]pyrimidin-7-yl)pyrrolidin-1-yl) -prop-2-en-1-one, reference compound] |
| 162 nM | – | 1.2 nM | C#Cc1c(-c2cnc3ccccc3c2)c2c(N)ncnc2n1C12CCC(NC(=O)c3nccs3)(CC1)C2 [Example 53] |
| – | 239 nM | 0.69 nM | C#Cc1c(-c2cnc3ccccc3c2)c2c(N)ncnc2n1C12CCC(CNC(=O)c3ccnn3C)(CC1)C2 [Example 13, N-((4-(4-Amino-6-ethynyl-5-(quinolin-3-yl)-7H-pyrrolo[2,3-d]pyrimidin-7-yl)bicyclo-[2.2.1]heptan-1-yl)methyl)-1-methyl-1H-pyrazole-5-carboxamide] |
| – | 204 nM | 1.3 nM | C#Cc1c(-c2cnc3ccccc3c2)c2c(N)ncnc2n1C12CCC(CNC(=O)c3cnc(C)cn3)(CC1)C2 [Example 14, N-((4-(4-Amino-6-ethynyl-5-(quinolin-3-yl)-7H-pyrrolo[2,3-d]pyrimidin-7-yl)bicyclo-[2.2.1]heptan-1-yl)methyl)-5-methylpyrazine-2-carboxamide] |
| 98 nM | – | 2.8 nM | C#Cc1c(-c2cnc3ccccc3c2)c2c(N)ncnc2n1C12CCC(NC(=O)c3ccccc3)(CC1)C2 [Example 1, N-(4-(4-Amino-6-ethynyl-5-(quinolin-3-yl)-7H-pyrrolo[2,3-d]pyrimidin-7-yl)bicyclo-[2.2.1]heptan-1-yl)benzamide] |
| 124 nM | – | 0.67 nM | C#Cc1c(-c2cnc3ccccc3c2)c2c(N)ncnc2n1C12CCC(NC(=O)c3cnns3)(CC1)C2 [Example 18, N-(4-(4-Amino-6-ethynyl-5-(quinolin-3-yl)-7H-pyrrolo[2,3-d]pyrimidin-7-yl)bicyclo-[2.2.1]heptan-1-yl)-1,2,3-thiadiazole-5-carboxamide] |
| 30 nM | – | 0.94 nM | C#Cc1c(-c2cnc3ccccc3c2)c2c(N)ncnc2n1C12CCC(NC(=O)c3ccno3)(CC1)C2 [Example 44] |
| 32 nM | – | 0.49 nM | C#Cc1c(-c2cnc3ccccc3c2)c2c(N)ncnc2n1C12CCC(NC(=O)c3ccc4ncnn4c3)(CC1)C2 [Example 16, N-(4-(4-Amino-6-ethynyl-5-(quinolin-3-yl)-7H-pyrrolo[2,3-d]pyrimidin-7-yl)bicyclo-[2.2.1]heptan-1-yl)-[1.2.4]triazolo[1,5-a]pyrimidin-6-carboxamide] |
| – | 42 nM | 0.53 nM | C#Cc1c(-c2cnc3ccccc3c2)c2c(N)ncnc2n1C12CCC(NC(=O)c3cccnc3)(CC1)C2 [Example 45] |
| 59 nM | – | 1 nM | C#Cc1c(-c2cnc3ccccc3c2)c2c(N)ncnc2n1C12CCC(N3CCOCC3)(CC1)C2 [Example 9, 6-Ethynyl-7-(4-morpholinobicyclo[2.2.1]heptan-1-yl)-5-(quinolin-3-yl)-7H-pyrrolo[2,3-d]pyrimidine-4-amine] |
| 31 nM | – | 0.84 nM | C#Cc1c(-c2cnc3ccccc3c2)c2c(N)ncnc2n1C12CCC(NC(=O)c3nccn3C)(CC1)C2 [Example 23, N-(4-(4-Amino-6-ethynyl-5-(quinolin-3-yl)-7H-pyrrolo[2,3-d]pyrimidin-7-yl)bicyclo-[2.2.1]heptan-1-yl)-1-methyl-1H-imidazole-2-carboxamide] |
| 59 nM | – | 0.99 nM | C#Cc1c(-c2cnc3ccccc3c2)c2c(N)ncnc2n1C12CCC(NC(=O)c3noc(C)n3)(CC1)C2 [Example 36, N-(4-(4-Amino-6-ethynyl-5-(quinolin-3-yl)-7H-pyrrolo[2,3-d]pyrimidin-7-yl)-bicyclo-[2.2.1]heptan-1-yl)-5-methyl-1,2,4-oxadiazole-3-carboxamide] |
| – | 24 nM | 0.6 nM | C#Cc1c(-c2cnc3ccccc3c2)c2c(N)ncnc2n1C12CCC(NC(=O)c3cnccn3)(CC1)C2 [Example 48] |
| 98 nM | – | 1.4 nM | C#Cc1c(-c2cnc3ccccc3c2)c2c(N)ncnc2n1C12CCC(NC(C)=O)(CC1)C2 [Example 39, N-(4-(4-Amino-6-ethynyl-5-(quinolin-3-yl)-7H-pyrrolo[2,3-d]pyrimidin-7-yl)-bicyclo-[2.2.1]heptan-1-yl)acetamide] |
